Assay results: ChEMBL document CHEMBL1773033, “Cyclic lactam hybrid α-MSH/Agouti-related protein (AGRP) analogues with nanomolar range binding affinities at the human melanocortin receptors” (Bioorg Med Chem Lett, 2011); call rule not given here
Positions of bridges follow the written chain, without caps; N, C: chain ends. Non-standard residues stand in square brackets, D forms with d. Residues, ends and D or L forms follow the SMILES beside them.

What was measured:
Melanocortin receptor 4 [1] = biological target: T1, Melanocortin receptor 4 (Homo sapiens, UniProt P32245); test: Agonist activity at human MC4R expressed in HEK293 cells assessed as intracellular cAMP accumulation; type: functional, cell-based
T1 sequence (P32245 whole entry): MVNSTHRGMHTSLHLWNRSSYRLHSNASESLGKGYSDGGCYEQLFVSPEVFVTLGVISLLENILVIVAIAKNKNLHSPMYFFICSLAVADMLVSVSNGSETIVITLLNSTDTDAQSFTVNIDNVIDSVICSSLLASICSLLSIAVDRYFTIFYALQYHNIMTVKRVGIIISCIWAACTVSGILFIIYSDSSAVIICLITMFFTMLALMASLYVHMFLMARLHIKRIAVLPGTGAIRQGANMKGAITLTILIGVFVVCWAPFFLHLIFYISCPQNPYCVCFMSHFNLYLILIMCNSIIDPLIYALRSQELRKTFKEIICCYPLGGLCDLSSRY

Melanocortin receptor 5 [2] = biological target: T2, Melanocortin receptor 5 (Homo sapiens, UniProt P33032); test: Agonist activity at human MC5R expressed in HEK293 cells assessed as intracellular cAMP accumulation; type: functional, cell-based
T2 sequence (P33032 whole entry): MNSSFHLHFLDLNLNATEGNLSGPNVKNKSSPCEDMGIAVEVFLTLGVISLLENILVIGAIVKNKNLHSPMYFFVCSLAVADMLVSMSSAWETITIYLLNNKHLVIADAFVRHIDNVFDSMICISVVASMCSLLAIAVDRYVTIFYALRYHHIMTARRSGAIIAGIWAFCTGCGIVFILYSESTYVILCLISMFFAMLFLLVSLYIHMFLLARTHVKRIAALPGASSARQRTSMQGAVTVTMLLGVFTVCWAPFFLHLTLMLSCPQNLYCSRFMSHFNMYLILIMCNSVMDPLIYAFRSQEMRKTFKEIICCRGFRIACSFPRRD

Melanocortin receptor 4 [3] = biological target: T1, Melanocortin receptor 4; test: Agonist activity at human MC4R expressed in HEK293 cells assessed as increase in intracellular cAMP level at 10 uM after 3 mins by luminescence counter relative to Ac-Nle-c[Asp-His-D-Phe-Arg-Trp-Lys]-NH2; type: functional, cell-based
Melanocortin receptor 5 [4] = biological target: T2, Melanocortin receptor 5; test: Displacement of [125I]-NDP-alpha-MSH from human MC5R expressed in HEK293 cells at 10 uM after 40 mins by Wallac 1470 gamma counting relative to Ac-Nle-c[Asp-His-D-Phe-Arg-Trp-Lys]-NH2; type: cell-based
Melanocortin receptor 5 [5] = biological target: T2, Melanocortin receptor 5; test: Agonist activity at human MC5R expressed in HEK293 cells assessed as increase in intracellular cAMP level at 10 uM after 3 mins by luminescence counter relative to Ac-Nle-c[Asp-His-D-Phe-Arg-Trp-Lys]-NH2; type: functional, cell-based
Melanocortin receptor 3 [6] = biological target: T3, Melanocortin receptor 3 (Homo sapiens, UniProt P41968); test: Displacement of [125I]-NDP-alpha-MSH from human MC3R expressed in HEK293 cells at 10 uM after 40 mins by Wallac 1470 gamma counting relative to Ac-Nle-c[Asp-His-D-Phe-Arg-Trp-Lys]-NH2; type: cell-based
T3 sequence (P41968 whole entry): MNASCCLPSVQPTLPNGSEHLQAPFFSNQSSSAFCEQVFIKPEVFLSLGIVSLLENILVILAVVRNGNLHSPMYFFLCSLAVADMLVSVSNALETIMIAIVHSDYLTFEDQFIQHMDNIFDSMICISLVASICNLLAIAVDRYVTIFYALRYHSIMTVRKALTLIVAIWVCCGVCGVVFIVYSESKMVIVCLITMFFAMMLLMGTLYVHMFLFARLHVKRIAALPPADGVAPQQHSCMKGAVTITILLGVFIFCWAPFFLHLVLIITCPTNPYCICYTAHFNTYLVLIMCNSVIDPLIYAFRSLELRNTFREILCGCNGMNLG

[7] = biological target: T4, Melanocyte-stimulating hormone receptor (Homo sapiens, UniProt Q01726); test: Displacement of [125I]-NDP-alpha-MSH from human MC1R expressed in HEK293 cells after 40 mins by Wallac 1470 gamma counting; type: cell-based
Target sequence in this assay (Q01726 whole entry): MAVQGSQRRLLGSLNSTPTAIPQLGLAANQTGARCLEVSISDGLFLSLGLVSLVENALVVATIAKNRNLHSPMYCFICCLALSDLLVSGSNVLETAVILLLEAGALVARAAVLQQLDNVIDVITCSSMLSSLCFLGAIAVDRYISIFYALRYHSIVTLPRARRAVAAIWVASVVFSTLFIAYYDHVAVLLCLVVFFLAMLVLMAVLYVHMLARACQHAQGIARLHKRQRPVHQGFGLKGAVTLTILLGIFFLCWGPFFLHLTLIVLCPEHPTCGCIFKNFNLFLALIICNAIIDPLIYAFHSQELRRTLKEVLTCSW

Melanocortin receptor 3 [8] = biological target: T3, Melanocortin receptor 3; test: Agonist activity at human MC3R expressed in HEK293 cells assessed as increase in intracellular cAMP level at 10 uM after 3 mins by luminescence counter relative to Ac-Nle-c[Asp-His-D-Phe-Arg-Trp-Lys]-NH2; type: functional, cell-based
Melanocortin receptor 4 [9] = biological target: T1, Melanocortin receptor 4; test: Displacement of [125I]-NDP-alpha-MSH from human MC4R expressed in HEK293 cells after 40 mins by Wallac 1470 gamma counting; type: cell-based
Melanocortin receptor 5 [10] = biological target: T2, Melanocortin receptor 5; test: Displacement of [125I]-NDP-alpha-MSH from human MC5R expressed in HEK293 cells after 40 mins by Wallac 1470 gamma counting; type: cell-based
[11] = biological target: T4, Melanocyte-stimulating hormone receptor; test: Displacement of [125I]-NDP-alpha-MSH from human MC1R expressed in HEK293 cells at 10 uM after 40 mins by Wallac 1470 gamma counting relative to Ac-Nle-c[Asp-His-D-Phe-Arg-Trp-Lys]-NH2; type: cell-based
Target sequence in this assay (Q01726 whole entry, looked up): as the sequence (Q01726 whole entry) above

[12] = biological target: T4, Melanocyte-stimulating hormone receptor; test: Agonist activity at human MC1R expressed in HEK293 cells assessed as increase in intracellular cAMP level at 10 uM after 3 mins by luminescence counter relative to Ac-Nle-c[Asp-His-D-Phe-Arg-Trp-Lys]-NH2; type: functional, cell-based
Target sequence in this assay (Q01726 whole entry, looked up): as the sequence (Q01726 whole entry) above

Melanocortin receptor 3 [13] = biological target: T3, Melanocortin receptor 3; test: Displacement of [125I]-NDP-alpha-MSH from human MC3R expressed in HEK293 cells after 40 mins by Wallac 1470 gamma counting; type: cell-based
Melanocortin receptor 4 [14] = biological target: T1, Melanocortin receptor 4; test: Displacement of [125I]-NDP-alpha-MSH from human MC4R expressed in HEK293 cells at 10 uM after 40 mins by Wallac 1470 gamma counting relative to Ac-Nle-c[Asp-His-D-Phe-Arg-Trp-Lys]-NH2; type: cell-based
Melanocortin receptor 3 [15] = biological target: T3, Melanocortin receptor 3; test: Agonist activity at human MC3R expressed in HEK293 cells assessed as intracellular cAMP accumulation; type: functional, cell-based
[16] = biological target: T4, Melanocyte-stimulating hormone receptor; test: Agonist activity at human MC1R expressed in HEK293 cells assessed as increase in intracellular cAMP accumulation; type: functional, cell-based
Target sequence in this assay (Q01726 whole entry): as above

EC50 (Melanocortin receptor 4 [1])	EC50 (Melanocortin receptor 5 [2])	Activity (Melanocortin receptor 4 [3]) [%]	Activity (Melanocortin receptor 5 [4]) [%]	Activity (Melanocortin receptor 5 [5]) [%]	Activity (Melanocortin receptor 3 [6]) [%]	IC50 [7]	Activity (Melanocortin receptor 3 [8]) [%]	IC50 (Melanocortin receptor 4 [9])	IC50 (Melanocortin receptor 5 [10])	Activity [11] [%]	Activity [12] [%]	IC50 (Melanocortin receptor 3 [13])	Activity (Melanocortin receptor 4 [14]) [%]	EC50 (Melanocortin receptor 3 [15])	EC50 [16]	Compound
Not Active	Not Active	0	0	0	0	Not Active	0	Not Active	Not Active	0	0	Not Active	0	Not Active	Not Active	CC(=O)N[C@H]1CC(=O)NCCCC[C@@H](C(N)=O)NC(=O)[C@@H](CCC(N)=O)NC(=O)[C@H](Cc2ccccc2)NC(=O)[C@H](Cc2c[nH]c3ccccc23)NC(=O)[C@H](CCCNC(=N)N)NC1=O (Ac-DRWF[dQ]K-NH2; lactam 1-6)
Not Active	Not Active	0	0	0	0	Not Active	0	Not Active	Not Active	0	0	Not Active	0	Not Active	Not Active	CC(=O)N[C@H]1CC(=O)NCCCC[C@@H](C(N)=O)NC(=O)[C@@H](CCCNC(=N)N)NC(=O)[C@H](Cc2ccccc2)NC(=O)[C@H](Cc2c[nH]c3ccccc23)NC(=O)[C@H](CCCNC(=N)N)NC1=O (Ac-DRWF[dR]K-NH2; lactam 1-6)
